Test results published in ChEMBL document CHEMBL4184100, “Discovery of 2-arylquinazoline derivatives as a new class of ASK1 inhibitors” (Bioorg Med Chem Lett, 2018).
≈ marks a conversion by molar mass, not a printed value.

T1: Mitogen-activated protein kinase kinase kinase 5 (Homo sapiens, UniProt Q99683)
T1 sequence (Q99683 whole entry): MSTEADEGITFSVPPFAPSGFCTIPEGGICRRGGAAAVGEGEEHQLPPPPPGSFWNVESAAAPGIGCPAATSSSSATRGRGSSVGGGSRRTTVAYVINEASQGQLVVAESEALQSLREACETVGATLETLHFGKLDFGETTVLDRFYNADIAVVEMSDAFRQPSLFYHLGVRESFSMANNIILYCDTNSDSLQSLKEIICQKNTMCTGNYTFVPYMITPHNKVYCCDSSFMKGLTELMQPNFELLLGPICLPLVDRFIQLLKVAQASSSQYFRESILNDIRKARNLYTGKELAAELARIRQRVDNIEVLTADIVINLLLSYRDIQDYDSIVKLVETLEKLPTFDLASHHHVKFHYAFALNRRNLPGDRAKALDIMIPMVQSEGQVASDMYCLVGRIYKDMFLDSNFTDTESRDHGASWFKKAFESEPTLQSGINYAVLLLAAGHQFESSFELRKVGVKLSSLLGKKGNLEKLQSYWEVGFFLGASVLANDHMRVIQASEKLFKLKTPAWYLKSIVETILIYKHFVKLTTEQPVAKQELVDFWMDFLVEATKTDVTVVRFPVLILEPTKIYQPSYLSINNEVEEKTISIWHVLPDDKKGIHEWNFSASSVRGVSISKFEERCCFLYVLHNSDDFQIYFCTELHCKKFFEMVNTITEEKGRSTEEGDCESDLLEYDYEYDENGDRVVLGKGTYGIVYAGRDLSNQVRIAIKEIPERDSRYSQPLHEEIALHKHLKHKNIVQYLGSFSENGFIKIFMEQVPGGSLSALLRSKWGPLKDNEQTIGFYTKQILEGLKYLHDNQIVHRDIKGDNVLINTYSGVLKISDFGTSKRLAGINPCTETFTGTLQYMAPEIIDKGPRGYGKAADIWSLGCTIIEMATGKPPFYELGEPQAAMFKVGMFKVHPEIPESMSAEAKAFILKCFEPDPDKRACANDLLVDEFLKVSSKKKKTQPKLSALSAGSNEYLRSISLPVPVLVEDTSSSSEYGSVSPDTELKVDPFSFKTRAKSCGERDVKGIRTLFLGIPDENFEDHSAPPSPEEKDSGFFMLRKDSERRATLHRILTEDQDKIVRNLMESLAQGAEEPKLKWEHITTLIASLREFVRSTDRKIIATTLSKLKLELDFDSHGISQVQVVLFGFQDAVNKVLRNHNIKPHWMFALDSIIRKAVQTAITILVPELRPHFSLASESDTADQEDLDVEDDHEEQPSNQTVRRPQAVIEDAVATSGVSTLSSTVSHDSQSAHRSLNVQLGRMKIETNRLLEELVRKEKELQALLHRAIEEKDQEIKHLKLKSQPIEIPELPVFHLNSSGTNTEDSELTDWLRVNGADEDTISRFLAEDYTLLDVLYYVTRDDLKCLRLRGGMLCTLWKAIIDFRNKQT

T2: CYP1A2 (Homo sapiens, UniProt P05177)
T2 sequence (P05177 whole entry): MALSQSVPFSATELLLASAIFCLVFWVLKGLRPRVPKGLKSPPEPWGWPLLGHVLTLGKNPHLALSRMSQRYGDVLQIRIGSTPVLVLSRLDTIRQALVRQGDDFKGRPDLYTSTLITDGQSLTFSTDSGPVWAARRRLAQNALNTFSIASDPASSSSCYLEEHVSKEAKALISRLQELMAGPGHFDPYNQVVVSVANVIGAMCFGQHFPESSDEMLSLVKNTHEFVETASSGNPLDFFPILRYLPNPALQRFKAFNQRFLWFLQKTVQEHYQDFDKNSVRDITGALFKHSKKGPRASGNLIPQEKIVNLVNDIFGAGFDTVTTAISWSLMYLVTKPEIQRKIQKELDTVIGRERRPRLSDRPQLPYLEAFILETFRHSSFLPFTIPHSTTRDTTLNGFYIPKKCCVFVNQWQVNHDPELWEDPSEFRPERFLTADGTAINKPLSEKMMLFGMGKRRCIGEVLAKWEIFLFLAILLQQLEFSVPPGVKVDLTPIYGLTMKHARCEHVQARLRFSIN

B1: Mitogen-activated protein kinase kinase kinase 5 (Homo sapiens), Q99683 (protein)
chain: T1 sequence (Q99683 whole entry)

Tested on: not listed separately
Assay: Stability in rat liver microsomes
Format: ADME, microsome
Conditions: read-out: Stability

Row | half-life | Molecule
1 | 3 min | Nc1cccc(Nc2ncc3cc(-c4cn[nH]c4)ccc3n2)c1
2 | 4 min | CC(=O)Nc1cccc(Nc2ncc3cc(-c4cn[nH]c4)ccc3n2)c1

Target: CYP2D6 (Homo sapiens, UniProt P10635)
Sequence (P10635 whole entry): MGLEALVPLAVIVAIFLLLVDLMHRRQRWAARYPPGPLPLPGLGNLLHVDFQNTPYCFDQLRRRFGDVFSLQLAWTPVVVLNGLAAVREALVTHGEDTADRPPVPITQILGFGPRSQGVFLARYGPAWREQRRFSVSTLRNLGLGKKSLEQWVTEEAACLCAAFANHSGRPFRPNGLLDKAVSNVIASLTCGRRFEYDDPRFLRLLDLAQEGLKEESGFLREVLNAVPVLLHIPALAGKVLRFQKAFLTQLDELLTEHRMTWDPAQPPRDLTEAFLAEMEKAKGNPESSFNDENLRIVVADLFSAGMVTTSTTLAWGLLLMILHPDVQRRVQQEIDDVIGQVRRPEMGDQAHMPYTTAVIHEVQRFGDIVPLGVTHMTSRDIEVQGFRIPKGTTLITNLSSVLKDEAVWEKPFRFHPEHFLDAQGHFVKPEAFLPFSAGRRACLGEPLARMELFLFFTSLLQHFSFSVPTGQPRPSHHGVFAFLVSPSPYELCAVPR
Assay: Inhibition of CYP2D6 (unknown origin) at 10 uM relative to control
Format: ADME
Conditions: not given

Row | inhibition at 10 µM | Molecule
3 | 56% | Nc1cccc(Nc2ncc3cc(-c4cn[nH]c4)ccc3n2)c1
4 | 52% | CC(=O)Nc1cccc(Nc2ncc3cc(-c4cn[nH]c4)ccc3n2)c1

Tested on: not listed separately
Assay: Solubility of the compound in phosphate buffered saline at pH 7.4
Format: physicochemical
Conditions: buffer

Row | solubility | Molecule
5 | 17 µM (≈ 5.14 µg/mL) | Nc1cccc(Nc2ncc3cc(-c4cn[nH]c4)ccc3n2)c1
6 | 10 µM (≈ 3.44 µg/mL) | CC(=O)Nc1cccc(Nc2ncc3cc(-c4cn[nH]c4)ccc3n2)c1

Target: CYP3A4 (Homo sapiens, UniProt P08684)
Sequence (P08684 whole entry): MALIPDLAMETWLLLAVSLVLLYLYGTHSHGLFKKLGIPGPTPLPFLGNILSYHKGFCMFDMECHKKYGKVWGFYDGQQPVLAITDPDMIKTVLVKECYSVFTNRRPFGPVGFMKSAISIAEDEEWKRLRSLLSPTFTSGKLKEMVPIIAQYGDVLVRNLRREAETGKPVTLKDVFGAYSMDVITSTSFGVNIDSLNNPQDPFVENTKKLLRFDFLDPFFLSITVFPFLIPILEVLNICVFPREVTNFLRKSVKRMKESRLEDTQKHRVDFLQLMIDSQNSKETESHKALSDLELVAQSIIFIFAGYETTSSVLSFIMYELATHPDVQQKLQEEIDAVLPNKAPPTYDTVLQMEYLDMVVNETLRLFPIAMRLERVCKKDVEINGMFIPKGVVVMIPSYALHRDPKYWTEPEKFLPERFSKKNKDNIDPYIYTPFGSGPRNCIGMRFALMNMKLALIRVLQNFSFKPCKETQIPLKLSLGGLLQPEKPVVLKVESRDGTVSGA
Assay: Inhibition of CYP3A4 (unknown origin) at 10 uM relative to control
Format: ADME
Conditions: not given

Row | inhibition at 10 µM | Molecule
7 | 52% | Nc1cccc(Nc2ncc3cc(-c4cn[nH]c4)ccc3n2)c1
8 | 88% | CC(=O)Nc1cccc(Nc2ncc3cc(-c4cn[nH]c4)ccc3n2)c1

Tested on: not listed separately
Assay: Stability in mouse liver microsomes
Format: ADME, microsome
Conditions: read-out: Stability

Row | half-life | Molecule
9 | 2 min | Nc1cccc(Nc2ncc3cc(-c4cn[nH]c4)ccc3n2)c1
10 | 2 min | CC(=O)Nc1cccc(Nc2ncc3cc(-c4cn[nH]c4)ccc3n2)c1

Tested on: not listed separately
Assay: Stability in human liver microsomes
Format: ADME, microsome
Conditions: read-out: Stability

Row | half-life | Molecule
11 | 29 min | Nc1cccc(Nc2ncc3cc(-c4cn[nH]c4)ccc3n2)c1
12 | 42 min | CC(=O)Nc1cccc(Nc2ncc3cc(-c4cn[nH]c4)ccc3n2)c1

Compound: CC(=O)Nc1cccc(Nc2ncc3ccccc3n2)c1
Assay: ATP-competitive inhibition of full length recombinant human N-terminal GST-tagged ASK1 expressed in baculovirus expression system assessed as Km for substrate at 2 uM using MKK6 as substrate by Lineweaver-burk plot analysis (reference value: 6.08 +/- 0.4093 10^-6 M)
Conditions: not given

Row | Molecule | Km
13 | B1 | 9.3 µM

Compound: CC(=O)Nc1cccc(Nc2ncc3ccccc3n2)c1
Assay: ATP-competitive inhibition of full length recombinant human N-terminal GST-tagged ASK1 expressed in baculovirus expression system assessed as Km for substrate at 0.5 uM using MKK6 as substrate by Lineweaver-burk plot analysis (reference value: 6.08 +/- 0.4093 10^-6 M)
Conditions: not given

Row | Molecule | Km
14 | B1 | 7.01 µM

Target: T1, Mitogen-activated protein kinase kinase kinase 5
Assay: Inhibition of stress-activated full length recombinant human N-terminal GST-tagged ASK1 expressed in baculovirus expression system using MKK6 as substrate pretreated for 10 mins followed by substrate addition by Alphascreen assay
Conditions: not given

Row | IC50 | Molecule
15 | > 10 µM | Nc1cccc(-c2ccc3nc(Nc4ccccc4)ncc3c2)c1
16 | > 10 µM | Clc1cccc(Nc2ncc3ccccc3n2)c1
17 | > 10 µM | c1ccc(Nc2ncc3cc(-c4cn[nH]c4)ccc3n2)cc1
18 | > 10 µM | Nc1cccc(Nc2ncc3cc(Br)ccc3n2)c1
19 | > 10 µM | Cn1cc(-c2ccc3nc(Nc4cccc(N)c4)ncc3c2)cn1
20 | 2 µM | CN(C)c1cccc(Nc2nccc(NCCOc3ccccc3)n2)c1
21 | > 10 µM | CC(=O)Nc1cccc(Nc2ncnc3[nH]cnc23)c1
22 | > 10 µM | Cn1cc(-c2ccc3nc(Nc4cccc(N(C(=O)C(C)(C)C)c5ccccc5)c4)ncc3c2)cn1
23 | > 10 µM | c1ccc(Nc2ncc3ccccc3n2)cc1
24 | > 10 µM | Nc1cccc(Nc2ncc3cc(-c4cccc(N)c4)ccc3n2)c1
25 | > 10 µM | c1ccc(Nc2ncnc3nc[nH]c23)cc1
26 | 0.6 µM | Nc1cccc(Nc2ncc3cc(-c4cn[nH]c4)ccc3n2)c1
27 | > 10 µM | CC(=O)Nc1cccc(Nc2ncc3cc(-c4cnn(C)c4)ccc3n2)c1
28 | > 10 µM | CN(C)c1cccc(Nc2ncnc3[nH]cnc23)c1
29 | > 10 µM | Fc1ccc(Nc2ncc3cc(Br)ccc3n2)cc1
30 | > 10 µM | Clc1cccc(Nc2ncnc3[nH]cnc23)c1
31 | > 10 µM | Nc1cccc(Nc2ncc3ccccc3n2)c1
32 | > 10 µM | CC(=O)Nc1cccc(Nc2ncc3cc(Br)ccc3n2)c1
33 | > 10 µM | CC(C)(C)C(=O)N(c1ccccc1)c1cccc(Nc2ncc3cc(Br)ccc3n2)c1
34 | > 10 µM | Brc1ccc2nc(Nc3ccccc3)ncc2c1
35 | > 10 µM | CC(C)(C)C(=O)N(c1ccccc1)c1cccc(Nc2ncc3cc(-c4cn[nH]c4)ccc3n2)c1
36 | > 10 µM | Cn1cc(-c2ccc3nc(Nc4ccccc4)ncc3c2)cn1
37 | > 10 µM | CC(=O)Nc1cccc(Nc2ncc3cc(-c4cccc(N)c4)ccc3n2)c1
38 | > 10 µM | Fc1ccc(Nc2ncc3ccccc3n2)cc1
39 | > 10 µM | Fc1ccc(Nc2ncnc3[nH]cnc23)cc1
40 | 0.2 µM | CC(=O)Nc1cccc(Nc2ncc3cc(-c4cn[nH]c4)ccc3n2)c1

Compound: CC(=O)Nc1cccc(Nc2ncc3ccccc3n2)c1
Assay: ATP-competitive inhibition of full length recombinant human N-terminal GST-tagged ASK1 expressed in baculovirus expression system assessed as Km for substrate at 1 uM using MKK6 as substrate by Lineweaver-burk plot analysis (reference value: 6.08 +/- 0.4093 10^-6 M)
Conditions: not given

Row | Molecule | Km
41 | B1 | 7.79 µM

Target: T2, CYP1A2
Assay: Inhibition of CYP1A2 (unknown origin) at 10 uM relative to control
Format: ADME
Conditions: not given

Row | inhibition at 10 µM | Molecule
42 | 67% | Nc1cccc(Nc2ncc3cc(-c4cn[nH]c4)ccc3n2)c1
43 | 49% | CC(=O)Nc1cccc(Nc2ncc3cc(-c4cn[nH]c4)ccc3n2)c1

Target: CYP2C9 (Homo sapiens, UniProt P11712)
Sequence (P11712 whole entry): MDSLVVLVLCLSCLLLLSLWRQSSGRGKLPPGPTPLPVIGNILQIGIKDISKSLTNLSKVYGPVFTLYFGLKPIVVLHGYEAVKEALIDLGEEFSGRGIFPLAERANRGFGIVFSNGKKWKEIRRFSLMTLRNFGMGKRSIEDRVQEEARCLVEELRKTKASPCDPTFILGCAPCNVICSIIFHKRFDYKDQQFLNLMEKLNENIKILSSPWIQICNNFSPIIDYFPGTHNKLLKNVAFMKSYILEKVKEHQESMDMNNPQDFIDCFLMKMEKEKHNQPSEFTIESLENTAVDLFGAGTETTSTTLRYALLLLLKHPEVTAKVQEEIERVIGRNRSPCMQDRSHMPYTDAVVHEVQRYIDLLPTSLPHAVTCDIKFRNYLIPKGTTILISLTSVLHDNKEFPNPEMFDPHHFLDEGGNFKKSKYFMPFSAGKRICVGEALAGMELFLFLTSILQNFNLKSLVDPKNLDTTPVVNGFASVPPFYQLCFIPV
Assay: Inhibition of CYP2C9 (unknown origin) at 10 uM relative to control
Format: ADME
Conditions: not given

Row | inhibition at 10 µM | Molecule
44 | 93% | Nc1cccc(Nc2ncc3cc(-c4cn[nH]c4)ccc3n2)c1
45 | 98% | CC(=O)Nc1cccc(Nc2ncc3cc(-c4cn[nH]c4)ccc3n2)c1
